Earlier results on one compound are cited in patent publication US20100221326A1, “PHARMACEUTICAL COMPOSITIONS FOR ORAL USE FOR TREATING PATIENTS AFFECTED BY OBESITY” (MADER S.R.L., priority 2007, published 2010).

For the data set the following is noted: raw material.

On to `CCCCCCCCCCC[C@@H](C[C@@H]1OC(=O)[C@H]1CCCCCC)OC(=O)[C@H](CC(C)C)NC=O` [Orlistat], for which the “degradation of the active principle” value (25° C., 65% RH, after 7 days' storage) is reported as 15%. Moreover, the degradation entry (40° C., RH 75%) is listed as “greater than 40%”.
